Read-outs that look alike come from different tables or passages of the source.
Assays:
HSV-2 [1] = assay: HSV-2 plaque-elimination assay in Vero cells; assay type: cell-based, HSV-2 (strain 186); details: fixed concentration, five micromolar (1, 2, ACV ten micromolar; PFA 250 micromolar), Vero cells, FIG. 3
Method: (§1) Three types of antiviral assay were used for HSV studies. For plaque-elimination, Vero cells (70000 per cm^2) were infected with 50-100 PFU for 30 minutes with occasional agitation. The inoculate was replaced with medium containing 1% (v/v) fetal calf serum and supplemented with test agents as indicated (see below). After two days of culture, cells were processed using crystal violet staining and plaques were scored by visual examination (FIG. 3). For examination of anti-HSV activity in parallel cultures during biochemical experiments, the progeny virus obtained from cells and from the culture medium at 23 hours post-infection was determined by limiting dilution on Vero cells (FIG. 5A). Macroscopic viral plaques were scored after two days of incubation in medium containing 1% (w/v) carboxymethylcellulose and 0.5% (v/v) fetal calf serum. For ED50 measurements, the concentration of compound that reduced a single-cycle of viral yield by 50% relative to the control and under the specified condition was interpolated from dose-response graphs (FIG. 4, Table 1). Over the course of ten independent experiments, the mean cell-associated viral yield was 180 PFU per cell (SD=80) and 10 PFU per cell (SD=5) for HSV-1 and HSV-2 respectively. The percent viral release (into the culture medium) was 16 (SD=7) and 0.9 (SD=0.6) for HSV-1 and HSV-2 respectively. These virologic parameters were independent of viral load and serum concentration.

host cell replication = assay: Host cell replication (CC50), host cell not specified; assay type: cell-based; details: mean CC50
Method: (§2) The effect of compounds on host cell replication (CC50), was measured using Sulforhodamine B-staining and the spectrophotometric method originally developed for the NCIs's in vitro anti-cancer drug screening program (P. Skehan et al., J. Natl. Cancer. Inst. 82, 1107-1112 (1990)). The CC50 value is the concentration of compound that inhibited actively replicating cells by 50% of control respectively after two days of continuous treatment.

HCMV = HCMV plaque-elimination assay in HEL cells; assay type: cell-based, HCMV (Towne); details: for inhibition of HCMV replication in plaque-elimination screen: fixed concentration, five micromolar (1, 2, ACV ten micromolar; PFA 250 micromolar), FIG. 3; for inhibition of HCMV replication in plaque-elimination screen / EC50: HEL cells; for EC50: Human betaherpesvirus 5, prevention of microscopic viral plaques, read-out: ED50 HCMV
Method: Virus and cell growth inhibition assays. Established virus culture techniques were used (E.-S. Huang, and T Kowalnick, Diagnosis of human cytomegalovirus infection: laboratory approaches, in Molecular Aspects of Human Cytomegalovirus Diseases (Becker,Y., Daria, G., and Huang, E.-S. eds.), Springer-Verlag, Berlin, pp. 225-255 (1993); Akanitapichat et al., Antiviral Research 45: 123-134 (2000)) but with the following modifications. For the HCMV plaque-elimination assay, HEL cells were plated in standard medium at 60,000 per cm^2 and infected the following day with 50-100 PFU HCMV for 90 minutes with occasional agitation. The inoculate was replaced with maintenance medium containing 5% (v/v) fetal calf serum and test agents as indicated (see below). After an additional 6-10 days of culture, cells were fixed with formal saline (10% formalin in phosphate-buffered saline; PBS), stained with 0.1% (w/v) toluidine blue in PBS and plaques were scored using an inverted light microscope at 40x magnification (FIGS. 2A and 3). For ED50 determination, the value was interpolated from dose-response data and is the concentration of compound that reduced plaque formation by 50% relative to control under the specified condition.

HSV-2 [2] = assay: HSV-2 viral yield-reduction assay in Vero cells; assay type: cell-based, HSV-2 (strain 186); details: for EC50: read-out: ED50 HSV-2
Method: as §1

HSV-1 = HSV-1 viral yield-reduction assay in Vero cells; assay type: cell-based, HSV-1 (KOS)
Method: as §1

[3] = Vero cell growth inhibition (Sulforhodamine B protein-dye binding); assay type: cell-based, African green monkey; details: African green monkey, Vero cells; cell growth inhibition, two days of continuous treatment; read-out: CC50 Vero
Method: as §2

HSV-1 proteins = assay: HSV-1 viral protein accumulation (Western immunoblot); assay type: cell-based; details: 10 micromolar, 16 hours, 2% (v/v) serum, FIG. 5D
[4] = HEL cell growth inhibition (Sulforhodamine B protein-dye binding); assay type: cell-based, human; details: human, HEL cells; cell growth inhibition, two days of continuous treatment
Method: as §2

HEL = assay: as above; assay type: cell-based, human; details: number in parenthesis; highest concentration tested; NA = no activity observed
Method: as §2

Vero = Vero cell growth inhibition (Sulforhodamine B protein-dye binding); assay type: cell-based, African green monkey; details: number in parenthesis; highest concentration tested
Method: as §2

With COc1cc(O)c2c(=O)c3cccc(OC)c3[nH]c2c1 [Compound 5, 3,5-Dimethoxy-1-hydroxyyacridone] the “inhibition of HSV-2 replication in plaque-elimination screen” value (HSV-2 [1]) was “inactive”, the CC50 (host cell replication) was 33 µM and the “inhibition of HCMV replication in plaque-elimination screen” value (shortened to “inhibition of HCMV replication”) (HCMV) was “inactive”.

For COc1ccc2[nH]c3cc(OC(C)C)cc(O)c3c(=O)c2c1 [Compound 8, 1-Hydroxy-3-isopropoxy-7-methoxyacridone], the viral release (HSV-2 [2]; 10 μM in 2% (v/v) serum, 0.001 PFU per cell HSV-2, up to forty-eight hours after infection) was “completely prevented viral release”, the inhibition at 10 µM (HSV-2 [2]; Human alphaherpesvirus 2, Vero, 10 μM in 2% (v/v) serum, 0.001 PFU per cell HSV-2, forty-eight hours, read-out: inhibition of production of cell-associated virus) was 80% and the “inhibition of HSV-2 replication in plaque-elimination screen” value (HSV-2 [1]) was “almost completely preventing the formation of microscopic viral plaques”. The “inhibition of HCMV replication” value (HCMV) was “almost completely preventing the formation of microscopic viral plaques”.

With COc1ccc2[nH]c3cc(OCc4ccccc4)cc(O)c3c(=O)c2c1 [Compound 9, 3-Benzyloxy-1-hydroxy-7-methoxyacridone] the “inhibition of HSV-2 replication in plaque-elimination screen” value (HSV-2 [1]) was “inhibited HCMV but not HSV-2 replication”, the “anti-HCMV activity relative to compound 2” value (HCMV) was “about five-fold less active than 2” and the EC50 (HCMV) was 6.9 ± 0.6 µM. For the same compound, the “inhibition of HCMV replication” value (HCMV) was “inhibited HCMV but not HSV-2 replication”.

With C=CCOc1cc(O)c2c(=O)c3cc(OC)ccc3[nH]c2c1 [Compound 10, 3-Allyloxy-1-hydroxy-7-methoxyacridone] the “selectivity, inhibition of HSV-2 replication” value (HSV-2 [2]) was 24 fold, the EC50 (HSV-2 [2]; Human alphaherpesvirus 2, viral yield-reduction, 1 PFU per cell in 5% (v/v) serum, Vero cells) was 3.9 ± 1 µM and the “inhibition of HSV-2 replication in plaque-elimination screen” value (HSV-2 [1]) was “almost completely preventing the formation of microscopic viral plaques”. For the same compound, the “selectivity, inhibition of HSV-1 replication” value (HSV-1) was 41 fold, the “change of ED50 concentration for inhibition of viral release” value (HSV-1; HSV-1, low viral load (0.01 PFU) and low serum (0.5% v/v), FIG. 4 panel D) was “decreased about six-fold” and the inhibition at 10 µM (HSV-1; Human alphaherpesvirus 1, Vero, 10 micromolar, 16 hours, 2% (v/v) serum, various viral loads, FIG. 5D, read-out: inhibition of HSV-1 viral replication) was 64 to 95%. For the same compound, the EC50 (HSV-1; Human alphaherpesvirus 1, viral yield-reduction, 1 PFU per cell in 5% (v/v) serum, Vero cells, read-out: ED50 HSV-1) was 2.3 ± 0.3 µM, the CC50 at 2 days [3] was 95 ± 2 µM and the “effect on HSV-1 viral protein accumulation” value (HSV-1 proteins) was “no effect”. For the same compound, the CC50 at 2 days [4] was > 50 µM, the “percent inhibition observed at the highest concentration tested, HEL growth” value (HEL) was 33% and the “inhibition of HCMV replication” value (HCMV) was “almost completely preventing the formation of microscopic viral plaques”. The “percent inhibition observed at the highest concentration tested, HCMV” value (HCMV; number in parenthesis, highest concentration tested, NA = no activity observed) was 80% and the “activity against HCMV, in words” value (HCMV; quantitative comparison, Table 1) was “at least as active as the 3,7-dimethoxy lead (2)”.

For COc1cc(O)c2c(=O)c3cc(OC(C)C)ccc3[nH]c2c1 [Compound 13, 1-Hydroxy-7-isopropoxy-3-methoxyacridone], the CC50 at 2 days [4] was 12 µM and the “inhibition of HCMV replication” value (HCMV) was “active”.

With O=C(O)P(=O)(O)O [PFA, phosphonoformic acid] the EC50 (HSV-2 [2]; Human alphaherpesvirus 2, Vero) was 60 ± 5 µM, the CC50 at 2 days [3] was > 500 µM and the “percent inhibition observed at the highest concentration tested, Vero growth” value (Vero) was 11%. The CC50 at 2 days [4] was > 500 µM, the “percent inhibition observed at the highest concentration tested, HEL growth” value (HEL) was 11% and the EC50 (HCMV) was 70 ± 10 µM.

Reference: patent US20050049273A1, “Acridone derivatives as anti-herpesvirus agents” (priority 2003, published 2005)
